Assay results published in ChEMBL document CHEMBL1128255, “Synthesis of 11 beta-[18F]fluoro-5 alpha-dihydrotestosterone and 11 beta-[18F]fluoro-19-nor-5 alpha-dihydrotestosterone: preparation via halofluorination-reduction, receptor binding, and tissue distribution” (J Med Chem, 1995).

Columns and labels:
[1] = %ID/g is percent injected dose per gram of tissue and in vivo distribution of compound obtained after 1 hour in prostate (d)/biood; type: ADME, organism-based, Prostate gland; conditions: other tissue
[2] = %ID/g is percent injected dose per gram of tissue and in vivo distribution of compound obtained after 1 hour in prostate (d)/muscle; type: ADME, organism-based
[3] = %ID/g is percent injected dose per gram of tissue and in vivo distribution of compound obtained after 1 hour in prostate (v); type: ADME, organism-based, Prostate gland
[4] = %ID/g is percent injected dose per gram of tissue and in vivo distribution of compound obtained after 2 hour in prostate (v); type: ADME, organism-based, Prostate gland
[5] = %ID/g is percent injected dose per gram of tissue and in vivo distribution of compound obtained after 2 hour in prostate (v)/blood; type: ADME, organism-based
[6] = %ID/g is percent injected dose per gram of tissue and in vivo distribution of compound obtained after 2 hour in prostate (v)/muscle; type: ADME, organism-based
[7] = %ID/g is percent injected dose per gram of tissue and in vivo distribution of compound obtained after 2 hour in spleen; type: ADME, organism-based
[8] = %ID/g is percent injected dose per gram of tissue and in vivo distribution of compound obtained after 4 hour in bladder; type: ADME, organism-based, Urinary bladder
[9] = %ID/g is percent injected dose per gram of tissue and in vivo distribution of compound obtained after 4 hour in blood; type: ADME, organism-based
[10] = %ID/g is percent injected dose per gram of tissue and in vivo distribution of compound obtained after 4 hour in bone; type: ADME, organism-based, Bone element
[11] = %ID/g is percent injected dose per gram of tissue and in vivo distribution of compound obtained after 4 hour in fat; type: ADME, organism-based, Adipose tissue
[12] = %ID/g is percent injected dose per gram of tissue and in vivo distribution of compound obtained after 4 hour in muscle; type: ADME, organism-based
[13] = %ID/g is percent injected dose per gram of tissue and in vivo distribution of compound obtained after 4 hour in prostate (d); type: ADME, organism-based, Prostate gland
[14] = %ID/g is percent injected dose per gram of tissue and in vivo distribution of compound obtained after 4 hour in prostate (d)/biood; type: ADME, organism-based, Prostate gland
[15] = %ID/g is percent injected dose per gram of tissue and in vivo distribution of compound obtained after 4 hour in prostate (d)/muscle; type: ADME, organism-based
[16] = %ID/g is percent injected dose per gram of tissue and in vivo distribution of compound obtained after 4 hour in prostate (v); type: ADME, organism-based, Prostate gland
[17] = %ID/g is percent injected dose per gram of tissue and in vivo distribution of compound obtained after 4 hour in prostate (v)/muscle; type: ADME, organism-based
[18] = %ID/g is percent injected dose per gram of tissue and in vivo distribution of compound obtained after 4 hour in spleen; type: ADME, organism-based
[19] = %ID/g is percent injected dose per gram of tissue and in vivo distribution of compound obtained after 2 hour in prostate (d)/biood; type: ADME, organism-based, Prostate gland
[20] = %ID/g is percent injected dose per gram of tissue and in vivo distribution of compound obtained after 2 hour in prostate (d)/muscle; type: ADME, organism-based
[21] = %ID/g is percent injected dose per gram of tissue and in vivo distribution of compound obtained after 1 hour in bladder; type: ADME, organism-based, Urinary bladder
[22] = %ID/g is percent injected dose per gram of tissue and in vivo distribution of compound obtained after 1 hour in blood; type: ADME, organism-based
[23] = %ID/g is percent injected dose per gram of tissue and in vivo distribution of compound obtained after 1 hour in bone; type: ADME, organism-based, Bone element
[24] = %ID/g is percent injected dose per gram of tissue and in vivo distribution of compound obtained after 1 hour in fat; type: ADME, organism-based, Adipose tissue
[25] = %ID/g is percent injected dose per gram of tissue and in vivo distribution of compound obtained after 1 hour in liver; type: ADME, organism-based
[26] = %ID/g is percent injected dose per gram of tissue and in vivo distribution of compound obtained after 1 hour in lung; type: ADME, organism-based
[27] = %ID/g is percent injected dose per gram of tissue and in vivo distribution of compound obtained after 1 hour in muscle; type: ADME, organism-based
[28] = %ID/g is percent injected dose per gram of tissue and in vivo distribution of compound obtained after 1 hour in prostate (d); type: ADME, organism-based, Prostate gland
[29] = %ID/g is percent injected dose per gram of tissue and in vivo distribution of compound obtained after 2 hour (low) in kidney; type: ADME, organism-based
[30] = %ID/g is percent injected dose per gram of tissue and in vivo distribution of compound obtained after 2 hour (low) in lung; type: ADME, organism-based
[31] = %ID/g is percent injected dose per gram of tissue and in vivo distribution of compound obtained after 2 hour (low) in prostate (d); type: ADME, organism-based, Prostate gland
[32] = %ID/g is percent injected dose per gram of tissue and in vivo distribution of compound obtained after 2 hour (low) in prostate (v); type: ADME, organism-based, Prostate gland
[33] = %ID/g is percent injected dose per gram of tissue and in vivo distribution of compound obtained after 2 hour (low) in prostate (v)/muscle; type: ADME, organism-based
[34] = %ID/g is percent injected dose per gram of tissue and in vivo distribution of compound obtained after 2 hour (low) in spleen; type: ADME, organism-based
[35] = %ID/g is percent injected dose per gram of tissue and in vivo distribution of compound obtained after 2 hour in bladder; type: ADME, organism-based, Urinary bladder
[36] = %ID/g is percent injected dose per gram of tissue and in vivo distribution of compound obtained after 2 hour in bone; type: ADME, organism-based, Bone element
[37] = %ID/g is percent injected dose per gram of tissue and in vivo distribution of compound obtained after 2 hour in fat; type: ADME, organism-based, Adipose tissue
[38] = %ID/g is percent injected dose per gram of tissue and in vivo distribution of compound obtained after 2 hour in liver; type: ADME, organism-based
[39] = %ID/g is percent injected dose per gram of tissue and in vivo distribution of compound obtained after 2 hour in lung; type: ADME, organism-based
[40] = %ID/g is percent injected dose per gram of tissue and in vivo distribution of compound obtained after 2 hour in muscle; type: ADME, organism-based
[41] = %ID/g is percent injected dose per gram of tissue and in vivo distribution of compound obtained after 2 hour (blocked) in kidney; type: ADME, organism-based
[42] = %ID/g is percent injected dose per gram of tissue and in vivo distribution of compound obtained after 2 hour (blocked) in lung; type: ADME, organism-based
[43] = %ID/g is percent injected dose per gram of tissue and in vivo distribution of compound obtained after 2 hour (blocked) in prostate (d); type: ADME, organism-based, Prostate gland
[44] = %ID/g is percent injected dose per gram of tissue and in vivo distribution of compound obtained after 2 hour (blocked) in prostate (d)/muscle; type: ADME, organism-based
[45] = %ID/g is percent injected dose per gram of tissue and in vivo distribution of compound obtained after 2 hour (blocked) in spleen; type: ADME, organism-based
[46] = %ID/g is percent injected dose per gram of tissue and in vivo distribution of compound obtained after 2 hour (low) in bone; type: ADME, organism-based, Bone element
[47] = %ID/g is percent injected dose per gram of tissue and in vivo distribution of compound obtained after 1 hour in spleen; type: ADME, organism-based
[48] = %ID/g is percent injected dose per gram of tissue and in vivo distribution of compound obtained after 2 hour (blocked) in bladder; type: ADME, organism-based, Urinary bladder
[49] = %ID/g is percent injected dose per gram of tissue and in vivo distribution of compound obtained after 2 hour (blocked) in blood; type: ADME, organism-based
[50] = %ID/g is percent injected dose per gram of tissue and in vivo distribution of compound obtained after 2 hour (blocked) in fat; type: ADME, organism-based, Adipose tissue

C[C@]12C[C@H](F)[C@H]3[C@@H](CC[C@H]4CC(=O)CC[C@@H]43)[C@@H]1CC[C@@H]2O gave an ID/g [1] of 2.531%, an ID/g [2] of 3.473% and an ID/g [3] of 0.284%. The ID/g [4] was 0.12%, the ID/g [5] was 2.605% and the ID/g [6] was 3.404%. The ID/g [7] was 0.036%, the ID/g [8] was 0.456% and the ID/g [9] was 0.035%. The ID/g [10] was 0.078%, the ID/g [11] was 0.022% and the ID/g [12] was 0.027%. It also gave an ID/g [13] of 0.084%, an ID/g [14] of 2.682% and an ID/g [15] of 3.98%. For the same compound, the ID/g [16] was 0.066%, the ID/g [17] was 2.919% and the ID/g [18] was 0.029%. The ID/g [19] was 2.95%, the ID/g [20] was 3.882% and the ID/g [21] was 3.331%. The ID/g [22] was 0.089%, the ID/g [23] was 0.068% and the ID/g [24] was 0.069%. For the same compound, the ID/g [25] was 1.812%, the ID/g [26] was 0.115% and the ID/g [27] was 0.064%. It also gave an ID/g [28] of 0.21%, an ID/g [29] of 0.251% and an ID/g [30] of 0.061%. The ID/g [31] was 0.139%, the ID/g [32] was 0.109% and the ID/g [33] was 2.993%. The ID/g [34] was 0.049%, the ID/g [35] was 4.549% and the ID/g [36] was 0.077%. It also gave an ID/g [37] of 0.041%, an ID/g [38] of 0.992% and an ID/g [39] of 0.058%. It also gave an ID/g [40] of 0.035%, an ID/g [41] of 0.301% and an ID/g [42] of 0.054%. It also gave an ID/g [43] of 0.048%, an ID/g [44] of 1.61% and an ID/g [45] of 0.032%. The ID/g [46] was 0.096%, the ID/g [47] was 0.061% and the ID/g [48] was 11.404%. For the same compound, the ID/g [49] was 0.061% and the ID/g [50] was 0.036%.

C[C@]12CCC(=O)C[C@@H]1CC[C@@H]1[C@@H]2[C@@H](F)C[C@]2(C)[C@@H](O)CC[C@@H]12 gave an ID/g [1] of 5.16%, an ID/g [2] of 7.75% and an ID/g [3] of 0.486%. The ID/g [4] was 0.317%, the ID/g [5] was 10.058% and the ID/g [6] was 9.022%. The ID/g [7] was 0.03%, the ID/g [8] was 0.268% and the ID/g [9] was 0.028%. It also gave an ID/g [10] of 0.072%, an ID/g [11] of 0.012% and an ID/g [12] of 0.017%. For the same compound, the ID/g [13] was 0.291%, the ID/g [14] was 10.827% and the ID/g [15] was 17.573%. It also gave an ID/g [16] of 0.327%, an ID/g [17] of 19.715% and an ID/g [18] of 0.02%. It also gave an ID/g [19] of 10.642%, an ID/g [20] of 10.141% and an ID/g [21] of 1.245%. The ID/g [22] was 0.092%, the ID/g [23] was 0.064% and the ID/g [24] was 0.061%. It also gave an ID/g [25] of 1.16%, an ID/g [26] of 0.111% and an ID/g [27] of 0.059%. The ID/g [28] was 0.459%, the ID/g [29] was 0.145% and the ID/g [30] was 0.036%. It also gave an ID/g [31] of 0.229%, an ID/g [32] of 0.212% and an ID/g [33] of 8.86%. It also gave an ID/g [34] of 0.017%, an ID/g [35] of 0.165% and an ID/g [36] of 0.061%. It also gave an ID/g [37] of 0.024%, an ID/g [38] of 0.451% and an ID/g [39] of 0.069%. It also gave an ID/g [40] of 0.038%, an ID/g [41] of 0.2% and an ID/g [42] of 0.039%. The ID/g [43] was 0.074%, the ID/g [44] was 3.089% and the ID/g [45] was 0.026%. It also gave an ID/g [46] of 0.059%, an ID/g [47] of 0.048% and an ID/g [48] of 0.903%. The ID/g [49] was 0.048% and the ID/g [50] was 0.026%.
